Tests used:
[1] = biological target: NT-3 growth factor receptor (Homo sapiens, UniProt Q16288); assay: Inhibition of NT3-activated full length TRKC (unknown origin) by Cell-based beta-galactosidase PathHunter assay
[2] = biological target: T1, BDNF/NT-3 growth factors receptor (Homo sapiens, UniProt Q16620); assay: Inhibition of BDNF-activated full length TRKB (unknown origin) by Cell-based beta-galactosidase PathHunter assay
[3] = biological target: High affinity nerve growth factor receptor (Homo sapiens, UniProt P04629); assay: Inhibition of N-terminal GST-tagged human TRKA (436 to 790 residues) expressed in baculovirus infected Sf21 cells using TK as substrate in presence of ATP measured after 30 mins by HTRF assay
[4] = system: THLE-2; assay: cells; details: Homo sapiens, THLE-2, 72 h
Description: Antiproliferative activity against human THLE-2 cells assessed as inhibition of cell growth measured after 72 hrs by CCK-8 assay

[5] = system: A549; assay: cells; details: Homo sapiens, A549, 72 h
Description: Antiproliferative activity against human A549 cells assessed as inhibition of cell growth measured after 72 hrs by CCK-8 assay

[6] = biological target: T1, BDNF/NT-3 growth factors receptor; assay: Inhibition of N-terminal GST-tagged human TRKB (456 to 822 residues) expressed in baculovirus infected Sf21 cells using TK as substrate in presence of ATP measured after 40 mins by HTRF assay
[7] = system: KM12; assay: cells; details: Homo sapiens, KM12, 72 h
Description: Antiproliferative activity against human KM12 cells assessed as inhibition of cell growth measured after 72 hrs by CCK-8 assay

T1 sequence (Q16620 whole entry, the tested form may be a part): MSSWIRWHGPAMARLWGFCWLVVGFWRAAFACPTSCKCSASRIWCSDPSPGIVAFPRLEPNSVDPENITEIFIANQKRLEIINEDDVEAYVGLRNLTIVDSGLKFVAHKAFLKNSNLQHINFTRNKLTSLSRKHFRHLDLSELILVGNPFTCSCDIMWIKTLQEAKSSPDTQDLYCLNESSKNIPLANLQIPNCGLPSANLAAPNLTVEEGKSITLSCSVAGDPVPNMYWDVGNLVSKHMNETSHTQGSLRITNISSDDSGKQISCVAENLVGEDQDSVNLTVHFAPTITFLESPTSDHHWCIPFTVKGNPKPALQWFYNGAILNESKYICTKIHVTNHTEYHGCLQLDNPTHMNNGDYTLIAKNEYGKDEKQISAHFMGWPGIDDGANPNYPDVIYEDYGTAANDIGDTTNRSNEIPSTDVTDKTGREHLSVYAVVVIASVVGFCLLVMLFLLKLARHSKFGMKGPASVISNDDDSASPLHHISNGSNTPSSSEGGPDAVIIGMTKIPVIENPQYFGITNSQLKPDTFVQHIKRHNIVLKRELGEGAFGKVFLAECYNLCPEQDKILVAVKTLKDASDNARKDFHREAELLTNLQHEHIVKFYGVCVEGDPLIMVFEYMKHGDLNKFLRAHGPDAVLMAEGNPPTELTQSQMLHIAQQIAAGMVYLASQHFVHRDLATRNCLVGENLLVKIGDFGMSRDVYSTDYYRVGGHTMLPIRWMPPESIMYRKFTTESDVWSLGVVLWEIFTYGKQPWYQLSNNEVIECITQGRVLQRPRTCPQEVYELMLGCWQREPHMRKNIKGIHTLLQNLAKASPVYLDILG
Chain of High affinity nerve growth factor receptor (P04629 whole entry, the tested form may be a part): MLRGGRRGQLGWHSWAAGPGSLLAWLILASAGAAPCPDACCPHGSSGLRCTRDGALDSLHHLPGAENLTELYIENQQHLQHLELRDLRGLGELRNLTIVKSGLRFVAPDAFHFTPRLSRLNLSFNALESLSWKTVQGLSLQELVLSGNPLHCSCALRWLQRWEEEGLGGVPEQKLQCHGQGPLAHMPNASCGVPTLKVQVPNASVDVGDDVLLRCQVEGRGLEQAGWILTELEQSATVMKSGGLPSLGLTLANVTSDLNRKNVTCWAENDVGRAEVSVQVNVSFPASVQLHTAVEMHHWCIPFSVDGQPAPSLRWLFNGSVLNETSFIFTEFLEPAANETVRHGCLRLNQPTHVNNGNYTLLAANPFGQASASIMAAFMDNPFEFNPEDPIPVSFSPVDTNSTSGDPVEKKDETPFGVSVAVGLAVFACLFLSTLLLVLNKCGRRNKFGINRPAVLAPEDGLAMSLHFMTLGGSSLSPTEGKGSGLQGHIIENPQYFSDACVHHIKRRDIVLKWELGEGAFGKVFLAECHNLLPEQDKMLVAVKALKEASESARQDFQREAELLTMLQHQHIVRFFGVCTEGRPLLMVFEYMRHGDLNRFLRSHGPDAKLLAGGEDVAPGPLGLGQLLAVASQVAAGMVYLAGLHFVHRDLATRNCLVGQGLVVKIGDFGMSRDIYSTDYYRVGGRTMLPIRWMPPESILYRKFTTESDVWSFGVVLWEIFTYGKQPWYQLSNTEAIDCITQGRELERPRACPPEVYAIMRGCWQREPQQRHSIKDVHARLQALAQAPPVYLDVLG
Chain of NT-3 growth factor receptor (Q16288 whole entry): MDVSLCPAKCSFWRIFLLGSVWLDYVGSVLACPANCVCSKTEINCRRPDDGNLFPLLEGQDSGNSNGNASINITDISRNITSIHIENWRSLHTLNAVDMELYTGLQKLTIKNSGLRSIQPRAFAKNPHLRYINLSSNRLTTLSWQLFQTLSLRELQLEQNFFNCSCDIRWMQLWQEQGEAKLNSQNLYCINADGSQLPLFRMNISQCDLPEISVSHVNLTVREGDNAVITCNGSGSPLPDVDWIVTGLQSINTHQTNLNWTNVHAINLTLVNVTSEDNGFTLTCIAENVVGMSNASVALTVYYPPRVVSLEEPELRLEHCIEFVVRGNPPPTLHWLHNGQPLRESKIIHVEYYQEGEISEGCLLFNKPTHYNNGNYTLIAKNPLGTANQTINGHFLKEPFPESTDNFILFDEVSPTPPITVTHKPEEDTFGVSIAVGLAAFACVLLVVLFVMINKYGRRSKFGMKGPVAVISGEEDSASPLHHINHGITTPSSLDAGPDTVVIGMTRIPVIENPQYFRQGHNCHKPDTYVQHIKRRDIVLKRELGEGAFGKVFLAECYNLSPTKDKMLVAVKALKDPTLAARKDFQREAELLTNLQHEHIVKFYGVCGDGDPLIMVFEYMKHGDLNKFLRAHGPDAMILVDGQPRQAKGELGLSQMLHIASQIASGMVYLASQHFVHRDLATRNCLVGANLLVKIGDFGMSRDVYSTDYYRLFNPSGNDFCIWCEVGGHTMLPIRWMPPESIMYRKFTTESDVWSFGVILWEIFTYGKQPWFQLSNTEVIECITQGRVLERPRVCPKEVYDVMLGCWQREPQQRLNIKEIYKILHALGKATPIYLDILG

Cc1ncc(NC(=O)NC2c3ccccc3-c3ccccc32)c(-c2ccccc2)n1
IC50 [1]: 2500 nM | IC50 [2]: > 8100 nM

CC1(C)c2[nH]nc(NC(=O)c3ccc(F)cc3)c2CN1Cc1cc(F)cc(F)c1
IC50 [3]: 350 nM

CC1(C)c2[nH]nc(NC(=O)c3ccc(F)cc3)c2CN1Cc1cccc(F)c1F
IC50 [3]: 210 nM

CC1(C)c2[nH]nc(NC(=O)c3ccc(N4CCOCC4)cc3)c2CN1Cc1cc(F)cc(F)c1
IC50 [3]: 14 nM | IC50 [4]: > 100000 nM | IC50 [5]: > 100000 nM | IC50 [6]: 27 nM | IC50 [7]: 211 nM

CC1(C)c2[nH]nc(NC(=O)c3ccccc3)c2CN1Cc1cc(C(F)(F)F)cc(C(F)(F)F)c1
IC50 [3]: 16400 nM

Cc1ccc(CN2Cc3c(NC(=O)c4ccccc4)n[nH]c3C2(C)C)cc1F
IC50 [3]: 940 nM

CN1CCN(c2cccc(C(=O)Nc3n[nH]c4c3CN(Cc3cccc(F)c3F)C4(C)C)c2)CC1
IC50 [3]: 210 nM

CC1(C)c2[nH]nc(NC(=O)c3cccc(N4CCOCC4)c3)c2CN1Cc1cc(F)cc(F)c1
IC50 [3]: 120 nM | IC50 [6]: 170 nM | IC50 [7]: > 1000 nM

CC1(C)c2[nH]nc(NC(=O)c3ccccc3)c2CN1Cc1c(F)cccc1F
IC50 [3]: 520 nM

CC1(C)c2[nH]nc(NC(=O)c3ccccc3)c2CN1Cc1cccc([N+](=O)[O-])c1
IC50 [3]: 600 nM

CC1(C)c2[nH]nc(NC(=O)c3ccccc3)c2CN1Cc1cc(F)cc(F)c1
IC50 [3]: 190 nM

CC1(C)c2[nH]nc(NC(=O)c3ccccc3)c2CN1Cc1cccc(I)c1
IC50 [3]: 1360 nM

CC1(C)c2[nH]nc(NC(=O)c3ccc(Br)cc3)c2CN1Cc1cc(F)cc(F)c1
IC50 [3]: 710 nM

CN(C)c1ccc(C(=O)Nc2n[nH]c3c2CN(Cc2cccc(F)c2F)C3(C)C)cc1
IC50 [3]: 69 nM

CN(C)c1ccc(C(=O)Nc2n[nH]c3c2CN(Cc2cc(F)cc(F)c2)C3(C)C)cc1
IC50 [3]: 96 nM

CC1(C)c2[nH]nc(NC(=O)c3ccccc3)c2CN1Cc1ccccc1F
IC50 [3]: 450 nM

Cc1ccc(F)c(CN2Cc3c(NC(=O)c4ccccc4)n[nH]c3C2(C)C)c1
IC50 [3]: 880 nM

CC1(C)c2[nH]nc(NC(=O)c3ccccc3)c2CN1Cc1ccc(F)cc1
IC50 [3]: 1180 nM

CN1CCN(c2ccc(C(=O)Nc3n[nH]c4c3CN(Cc3cccc(F)c3F)C4(C)C)cc2)CC1
IC50 [3]: 17 nM | IC50 [4]: > 100000 nM | IC50 [5]: 64200 nM | IC50 [6]: 23 nM | IC50 [7]: 216 nM

CC1(C)c2[nH]nc(NC(=O)c3cccc(N4CCOCC4)c3)c2CN1Cc1cccc(F)c1F
IC50 [3]: 270 nM

COc1cccc(CN2Cc3c(NC(=O)c4ccccc4)n[nH]c3C2(C)C)c1
IC50 [3]: 1120 nM

CC1(C)c2[nH]nc(NC(=O)c3ccc4ccccc4c3)c2CN1Cc1cccc(F)c1F
IC50 [3]: 460 nM

CC1(C)c2[nH]nc(NC(=O)c3ccc4ncccc4c3)c2CN1Cc1cc(F)cc(F)c1
IC50 [3]: 180 nM

CC1(C)c2[nH]nc(NC(=O)c3ccccc3)c2CN1Cc1cccc(F)c1
IC50 [3]: 470 nM

CC1(C)c2[nH]nc(NC(=O)c3ccccc3)c2CN1Cc1cccc(Br)c1
IC50 [3]: 940 nM

CN1CCN(c2cccc(C(=O)Nc3n[nH]c4c3CN(Cc3cc(F)cc(F)c3)C4(C)C)c2)CC1
IC50 [3]: 150 nM | IC50 [6]: 190 nM | IC50 [7]: > 1000 nM

CC1(C)c2[nH]nc(NC(=O)c3ccccc3)c2CN1Cc1ccc(F)cc1F
IC50 [3]: 2320 nM

CC1(C)c2[nH]nc(NC(=O)c3ccccc3)c2CN1Cc1ccc(F)c(F)c1
IC50 [3]: 680 nM

CC1(C)c2[nH]nc(NC(=O)c3ccccc3)c2CN1Cc1cc(F)ccc1F
IC50 [3]: 480 nM

Cc1cccc(CN2Cc3c(NC(=O)c4ccccc4)n[nH]c3C2(C)C)c1
IC50 [3]: 1100 nM

CC1(C)c2[nH]nc(NC(=O)c3ccccc3)c2CN1Cc1cccc(F)c1F
IC50 [3]: 200 nM

CC1(C)c2[nH]nc(NC(=O)c3ccc4ccccc4c3)c2CN1Cc1cc(F)cc(F)c1
IC50 [3]: 440 nM

CC1(C)c2[nH]nc(NC(=O)c3ccc(Br)cc3)c2CN1Cc1cccc(F)c1F
IC50 [3]: 950 nM

CC1(C)c2[nH]nc(NC(=O)c3ccccc3)c2CN1Cc1ccccc1
IC50 [3]: 1240 nM

CC1(C)c2[nH]nc(NC(=O)c3ccccc3)c2CN1Cc1cccc(Cl)c1
IC50 [3]: 670 nM

CC1(C)c2[nH]nc(NC(=O)c3ccc(N4CC[N+](C)(Cc5cc(F)cc(F)c5)CC4)cc3)c2CN1Cc1cc(F)cc(F)c1
IC50 [3]: 95 nM

CN(C)c1cccc(C(=O)Nc2n[nH]c3c2CN(Cc2cc(F)cc(F)c2)C3(C)C)c1
IC50 [3]: 270 nM

CC1(C)c2[nH]nc(NC(=O)c3ccccc3)c2CN1Cc1cccc(C#N)c1
IC50 [3]: 980 nM

CC1(C)c2[nH]nc(NC(=O)c3ccccc3)c2CN1Cc1cc(F)cc(C(F)(F)F)c1
IC50 [3]: 1000 nM

CN(C)c1cccc(C(=O)Nc2n[nH]c3c2CN(Cc2cccc(F)c2F)C3(C)C)c1
IC50 [3]: 420 nM

CC1(C)c2[nH]nc(NC(=O)c3ccccc3)c2CN1Cc1cc(F)c(F)c(F)c1
IC50 [3]: 6960 nM

CC1(C)c2[nH]nc(NC(=O)c3ccc(N4CCOCC4)cc3)c2CN1Cc1cccc(F)c1F
IC50 [3]: 29 nM | IC50 [4]: 49500 nM | IC50 [5]: 88500 nM | IC50 [6]: 35 nM | IC50 [7]: 146 nM
